Measurements from patent publication USRE38332E1, “Selected soluble esters of hydroxyl-containing indolocarbazoles” (Cephalon, Inc., priority 1995, dated 2003).

Tested on: not listed separately
Experiment: Solubility of the esters at 1 mg/ml in water and buffer solutions
Conditions: 10 mM Tris buffer pH 9
Procedure: Indolocarbazole esters were dissolved in water, dimethylsulfoxide (DMSO) and the following buffer solutions to determine solubility and to observe conversion to indolocarbazole I-5. Samples were analyzed by HPLC using UV detection at 290 nm.
Solution 2 was a 10 mM acetate buffer at pH 4 which was prepared by weighing 0.68 g of sodium acetate 3H2O into 500 ml of water and adjusting the pH with acetic acid.
Solution 3 was a 10 mM phosphate buffer, pH 7, which was prepared by weighing 0.30 g of monobasic sodium phosphate and 0.36 g of dibasic sodium phosphate into 500 ml of water, stirring until completely dissolved, and adjusting the pH with hydrochloric acid.
Solution 4 was a 10 mM Tris buffer, pH 9, which was prepared by weighing 0.79 g of Tris (tris(hydroxymethyl)aminomethane hydrochloride) into 500 ml of water, stirring until completely dissolved, and adjusting the pH with sodium hydroxide.
Sample solutions were prepared by weighing 0.5-1 mg of the indolocarbazole ester into an amber 1.5 ml autosampler vial, to which the appropriate quantity of one of the buffer solutions was added, in order to achieve a final concentration of 1 mg/ml. The sample solutions were vortexed and sonicated for 10 minutes. Fifty μl aliquots were placed into 1.5 ml amber autosampler vials. The reaction was quenched at a selected time interval by addition of 450 μl DMSO to the vial.

Compound | solubility in Tris buffer
COC1(COC(=O)CN(C)C)CC2OC1(C)n1c3ccccc3c3c4c(c5c6ccccc6n2c5c31)C(=O)NC4.Cl (stereo not drawn) [Example 7, (I-5)-N,N-Dimethylglycinate Hydrochloride] | not completely soluble
COC1(COC(=O)C(N)Cc2cnc[nH]2)CC2OC1(C)n1c3ccccc3c3c4c(c5c6ccccc6n2c5c31)C(=O)NC4.Cl.Cl (stereo not drawn) [Example 9, (I-5) Histidinate Dihydrochloride] | not completely soluble
COC1(COC(=O)C(C)(C)N)CC2OC1(C)n1c3ccccc3c3c4c(c5c6ccccc6n2c5c31)C(=O)NC4.Cl (stereo not drawn) [Example 12, (I-5)-α-Aminoisobutyrate Hydrochloride] | not completely soluble

Same assay, conditions: 10 mM acetate buffer pH 4

Compound | solubility in acetate buffer
COC1(COC(=O)CN(C)C)CC2OC1(C)n1c3ccccc3c3c4c(c5c6ccccc6n2c5c31)C(=O)NC4.Cl (stereo not drawn) [Example 7, (I-5)-N,N-Dimethylglycinate Hydrochloride] | completely soluble
COC1(COC(=O)C(N)Cc2cnc[nH]2)CC2OC1(C)n1c3ccccc3c3c4c(c5c6ccccc6n2c5c31)C(=O)NC4.Cl.Cl (stereo not drawn) [Example 9, (I-5) Histidinate Dihydrochloride] | completely soluble
COC1(COC(=O)C(C)(C)N)CC2OC1(C)n1c3ccccc3c3c4c(c5c6ccccc6n2c5c31)C(=O)NC4.Cl (stereo not drawn) [Example 12, (I-5)-α-Aminoisobutyrate Hydrochloride] | completely soluble

Same assay, conditions: 10 mM phosphate buffer pH 7

Compound | solubility in phosphate buffer
COC1(COC(=O)CN(C)C)CC2OC1(C)n1c3ccccc3c3c4c(c5c6ccccc6n2c5c31)C(=O)NC4.Cl (stereo not drawn) [Example 7, (I-5)-N,N-Dimethylglycinate Hydrochloride] | not completely soluble
COC1(COC(=O)C(N)Cc2cnc[nH]2)CC2OC1(C)n1c3ccccc3c3c4c(c5c6ccccc6n2c5c31)C(=O)NC4.Cl.Cl (stereo not drawn) [Example 9, (I-5) Histidinate Dihydrochloride] | not completely soluble
COC1(COC(=O)C(C)(C)N)CC2OC1(C)n1c3ccccc3c3c4c(c5c6ccccc6n2c5c31)C(=O)NC4.Cl (stereo not drawn) [Example 12, (I-5)-α-Aminoisobutyrate Hydrochloride] | not completely soluble

Same assay, conditions: water (Solution 1)

Compound | solubility in water
COC1(COC(=O)CN(C)C)CC2OC1(C)n1c3ccccc3c3c4c(c5c6ccccc6n2c5c31)C(=O)NC4.Cl (stereo not drawn) [Example 7, (I-5)-N,N-Dimethylglycinate Hydrochloride] | completely soluble
COC1(COC(=O)C(N)Cc2cnc[nH]2)CC2OC1(C)n1c3ccccc3c3c4c(c5c6ccccc6n2c5c31)C(=O)NC4.Cl.Cl (stereo not drawn) [Example 9, (I-5) Histidinate Dihydrochloride] | completely soluble
COC1(COC(=O)C(C)(C)N)CC2OC1(C)n1c3ccccc3c3c4c(c5c6ccccc6n2c5c31)C(=O)NC4.Cl (stereo not drawn) [Example 12, (I-5)-α-Aminoisobutyrate Hydrochloride] | completely soluble

Tested on: not listed separately
Experiment: In vitro metabolism of I-5 esters in human plasma
Format: in vitro ADME
Conditions: 5000 ng/mL, 37° C.
Procedure: (§1) Freshly-collected plasma from male Sprague-Dawley rats and presumably-healthy drug-free male humans was pooled and immediately frozen. The plasma was kept frozen at −90° C. and each aliquot was thawed only once for use in incubations. Stock solutions of the indolocarbazole esters were prepared in DMSO and were used to prepare standard curves in plasma that had been boiled to two minutes. Boiled plasma was divided into 500 μL aliquots, mixed with an aliquot of the internal standard, and spiked with the respective stock indolocarbazole ester solutions to prepare the standard curve. Thawed plasma was divided into 500 μL aliquots, placed in screw-cap vials, mixed with internal standard, and spiked with stock solutions of the respective indolocarbazole esters to yield a nominal concentration of 5000 ng/mL.
(§2) Incubations were then performed at 37° C. in a shaking water bath for 0, 0.5, 1, 2, 5, 10, 15, 30, and 60 minutes and quenched by addition of 5 mL methylene chloride. All tubes (standards and experimentals) were extracted for 15 minutes by shaking, and centrifuged. The methylene chloride layer was removed, dried under a stream of nitrogen, and reconstituted in DMSO. Fifty μL of the reconstituted extracts were analyzed by reverse-phase HPLC with detection at 290 nm. The mobile phase and gradient conditions are given below: […]

Compound | hydrolysis, conversion to indolocarbazole I-5
COC1(COC(=O)C(N)CCCNC(=N)N)CC2OC1(C)n1c3ccccc3c3c4c(c5c6ccccc6n2c5c31)C(=O)NC4.Cl.Cl (stereo not drawn) [Example 10, (I-5)-Argininate Dihydrochloride] | hydrolyzed rapidly

Tested on: ChAT activity in spinal cord cultures
Experiment: Effect of indolocarbazole esters on ChAT activity in dissociated spinal cord cultures
Format: cell-based, rat
Conditions: 500 nM
Procedure: The effect of indolocarbazole esters of the invention on ChAT activity was assayed in dissociated spinal cord cultures prepared from fetal rats. ChAT is the enzyme that catalyzes the synthesis of the neurotransmitter acetylcholine, and it is a specific biochemical marker for cholinergic neurons. In the spinal cord, the large majority of cholinergic neurons are motor neurons. Assay of this enzyme may thus be used as an indication of the effects of a factor (or factors) on the survival and/or differentiation of cholinergic neurons and/or regulation of this enzyme. The procedure used for the assay is that described in Example 6 of WO 94/02488. Fourteen esters were tested in the spinal cord ChAT assay to determine their relative efficacy, and the results are summarized in Table 4.

Compound | Spinal Cord ChAT Activity (% of Control) 500 nM
COC1(COC(=O)CN)CC2OC1(C)n1c3ccccc3c3c4c(c5c6ccccc6n2c5c31)C(=O)NC4.Cl (stereo not drawn) [Example 2, (I-5)-Glycinate Hydrochloride] | 157 % of Control
COC1(COC(=O)CN(C)C)CC2OC1(C)n1c3ccccc3c3c4c(c5c6ccccc6n2c5c31)C(=O)NC4.Cl (stereo not drawn) [Example 7, (I-5)-N,N-Dimethylglycinate Hydrochloride] | 132 % of Control
COC1(COC(=O)C(N)Cc2cnc[nH]2)CC2OC1(C)n1c3ccccc3c3c4c(c5c6ccccc6n2c5c31)C(=O)NC4.Cl.Cl (stereo not drawn) [Example 9, (I-5) Histidinate Dihydrochloride] | 158 % of Control
COC1(COC(=O)C(N)CCCNC(=N)N)CC2OC1(C)n1c3ccccc3c3c4c(c5c6ccccc6n2c5c31)C(=O)NC4.Cl.Cl (stereo not drawn) [Example 10, (I-5)-Argininate Dihydrochloride] | 128 % of Control
COC1(COC(=O)C(C)(C)N)CC2OC1(C)n1c3ccccc3c3c4c(c5c6ccccc6n2c5c31)C(=O)NC4.Cl (stereo not drawn) [Example 12, (I-5)-α-Aminoisobutyrate Hydrochloride] | 155 % of Control
COC1(COC(=O)C(N)CCC(=O)O)CC2OC1(C)n1c3ccccc3c3c4c(c5c6ccccc6n2c5c31)C(=O)NC4.Cl (stereo not drawn) [Example 13, (I-5)-Glutamate Hydrochloride] | 168 % of Control

Same assay, conditions: 1000 nM

Compound | Spinal Cord ChAT Activity (% of Control) 1000 nM
COC1(COC(=O)CN)CC2OC1(C)n1c3ccccc3c3c4c(c5c6ccccc6n2c5c31)C(=O)NC4.Cl (stereo not drawn) [Example 2, (I-5)-Glycinate Hydrochloride] | 151 % of Control
COC1(COC(=O)CN(C)C)CC2OC1(C)n1c3ccccc3c3c4c(c5c6ccccc6n2c5c31)C(=O)NC4.Cl (stereo not drawn) [Example 7, (I-5)-N,N-Dimethylglycinate Hydrochloride] | 151 % of Control
COC1(COC(=O)C(N)Cc2cnc[nH]2)CC2OC1(C)n1c3ccccc3c3c4c(c5c6ccccc6n2c5c31)C(=O)NC4.Cl.Cl (stereo not drawn) [Example 9, (I-5) Histidinate Dihydrochloride] | 143 % of Control
COC1(COC(=O)C(N)CCCNC(=N)N)CC2OC1(C)n1c3ccccc3c3c4c(c5c6ccccc6n2c5c31)C(=O)NC4.Cl.Cl (stereo not drawn) [Example 10, (I-5)-Argininate Dihydrochloride] | 170 % of Control
COC1(COC(=O)C(C)(C)N)CC2OC1(C)n1c3ccccc3c3c4c(c5c6ccccc6n2c5c31)C(=O)NC4.Cl (stereo not drawn) [Example 12, (I-5)-α-Aminoisobutyrate Hydrochloride] | 150 % of Control
COC1(COC(=O)C(N)CCC(=O)O)CC2OC1(C)n1c3ccccc3c3c4c(c5c6ccccc6n2c5c31)C(=O)NC4.Cl (stereo not drawn) [Example 13, (I-5)-Glutamate Hydrochloride] | 142 % of Control

Tested on: not listed separately
Experiment: In vitro metabolism of I-5 esters in rat plasma
Format: in vitro ADME
Conditions: 5000 ng/mL, 37° C.
Procedure: as §1, §2

Compound | maximum rates of hydrolysis | hydrolysis of the ester linkage, liberation of indolocarbazole I-5
COC1(COC(=O)CN)CC2OC1(C)n1c3ccccc3c3c4c(c5c6ccccc6n2c5c31)C(=O)NC4.Cl (stereo not drawn) [Example 2, (I-5)-Glycinate Hydrochloride] | more extensively hydrolyzed | 
COC1(COC(=O)C(N)CCCNC(=N)N)CC2OC1(C)n1c3ccccc3c3c4c(c5c6ccccc6n2c5c31)C(=O)NC4.Cl.Cl (stereo not drawn) [Example 10, (I-5)-Argininate Dihydrochloride] |  | complete prior to the first sampling period
